Assays:
Assay in all cases: growth AUC relative to DMSO control (fraction); higher = more growth (less inhibition)
Details in all cases: 24 h
Escherichia coli IAI1 = test system: Escherichia coli IAI1
Protocol: (§1)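 Validation screen: 11 independently purchased pesticides tested on 8 gut bacterial strains at 2.5–320 µM in mGAM, anaerobic, 37 °C, 24 h. Growth AUC normalised to DMSO controls, mean of 3 independent experiments.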

Clostridium difficile = test system: Clostridium difficile
Protocol: as §1

Streptococcus salivarius = test system: Streptococcus salivarius
Protocol: as §1

Eubacterium rectale = test system: Eubacterium rectale
Protocol: as §1

[1] = test system: Parabacteroides distasonis
Protocol: as §1

Roseburia intestinalis = test system: Roseburia intestinalis
Protocol: as §1

Lactobacillus gasseri = test system: Lactobacillus gasseri
Protocol: as §1

Bacteroides uniformis = test system: Bacteroides uniformis
Protocol: as §1

COC(=O)N(OC)c1ccccc1COc1ccn(-c2ccc(Cl)cc2)n1 [PYRACLOSTROBIN]
growth AUC
Details	Bacteroides uniformis	Clostridium difficile	Escherichia coli IAI1	Eubacterium rectale	Lactobacillus gasseri	Roseburia intestinalis	Streptococcus salivarius	[1]
2.5 µM	1.01	1.03	1.02	1.17	1.06	0.955	1.11	0.922
5 µM	0.994	1.01	1.02	1.12	1.01	0.923	1.09	0.798
10 µM	0.955	1	1.01	1.18	0.997	0.957	1.07	0.705
20 µM	0.988	1.01	1.01	1.16	0.955	0.859	1.12	0.626
40 µM	0.926	1.03	1.01	1.18	0.989	0.975	1.08	0.401
80 µM	0.914	1.04	0.999	1.13	0.914	0.919	1.02	0.26

O=C(Oc1ccccc1)n1c(C(F)(F)F)nc2cc(Cl)c(Cl)cc21 [FENAZAFLOR]
growth AUC
Details	Bacteroides uniformis	Clostridium difficile	Escherichia coli IAI1	Eubacterium rectale	Lactobacillus gasseri	Roseburia intestinalis	Streptococcus salivarius	[1]
2.5 µM	0.972	0.824	0.97	0.987	1.06	1.05	1.07	0.939
5 µM	0.914	0.854	0.837	0.875	0.99	0.968	0.876	0.6
10 µM	0.686	0.595	0.679	0.642	0.837	0.887	0.658	0.314
20 µM	0.492	0.705	0.617	0.407	0.448	0.582	0.513	0.174
40 µM	0.171	0.00756	0.383	0.255	0.168	0.22	0.0266	0.0387
80 µM	0.00285	0.0273	0.00144	0.106	0.0839	0.0682	0.0113	0.0173
160 µM	0.00332	0.0114	0.00384	0.0493	0.0514	0.0676	0.00976	0.0144
320 µM	0.0184	0.0253	0.0222	0.106	0.0326	0.0375	0.0373	0.0614

C=CCOC(Cn1ccnc1)c1ccc(Cl)cc1Cl.O=S(=O)(O)O (stereo unspecified) [IMAZALIL SULFATE]
growth AUC
Details	Bacteroides uniformis	Clostridium difficile	Escherichia coli IAI1	Eubacterium rectale	Lactobacillus gasseri	Roseburia intestinalis	Streptococcus salivarius	[1]
2.5 µM	1.04	1.02	0.998	0.622	1.07	0.943	1.05	1.02
5 µM	1	0.962	0.975	0.322	0.958	0.906	1.01	0.948
10 µM	1.01	0.944	0.956	0.0607	0.976	0.861	0.963	0.856
20 µM	0.971	1.01	0.96	0.0382	0.92	0.459	0.978	0.922
40 µM	0.976	0.915	0.942	0.0278	0.946	0.0225	0.961	0.732
80 µM	0.928	0.797	0.961	0.014	0.881	0.0276	0.944	0.587
160 µM	0.836	0.515	0.879	0.0363	0.788	0.0196	0.999	0.145
320 µM	0.413	0.219	0.776	0.0159	0.414	0.0118	0.705	0.0186

Source: the supplement of paper PMC12669032
